The subject of series [1] is Cavia porcellus. Particulars: acute; oral; Guinea Pig.
In series [2] the test system is Mus musculus.
The subject of series [3] is Oryctolagus sp. The settings on record: for LD50: acute.
The subject of series [4] is Rattus norvegicus. Particulars: for LC50 / LD50: acute.
Series [5] relates to Rattus norvegicus. Particulars: subchronic, oral.
Series [6] concerns Canidae. As to the kind of experiment: LD0; higher = less toxic. The settings on record: acute; injection; intravenous; Dog Other.
The test system of series [7] is Cavia porcellus. As to the kind of experiment: LD0; higher = less toxic. The settings on record: acute; injection; subcutaneous; Guinea Pig.
Series [8] relates to Oryctolagus sp. As to the kind of experiment: LD0; higher = less toxic. The settings on record: acute; dermal.
Series [9] relates to Rattus norvegicus. As to the kind of experiment: LD0; higher = less toxic. Particulars: acute; injection; subcutaneous.
For series [10], the system named is Mus musculus. As to the kind of experiment: LD100; higher = less toxic. The settings on record: acute.
The test system of series [11] is Sus scrofa. The settings on record: subchronic; duration: 90 days; oral; diet; M/F; Not specified; Urinary, Hepatic.
The subject of series [12] is Rattus norvegicus. As to the kind of experiment: LC10; higher = less toxic. The settings on record: acute; inhalation; Sprague-Dawley.
Series [13] concerns Oryctolagus sp. As to the kind of experiment: LD40; higher = less toxic. Particulars: acute; dermal; occlusive; New Zealand.
Series [14] deals with Canidae. Particulars: chronic; oral; diet; M/F; Dog Other; rbc and plasma cholinesterase inhibition, and testicular and uterine effects.
Series [15] deals with Rattus norvegicus. Particulars: Hershberger; duration: 10 days; oral; gavage; Sprague-Dawley; inactive + Negative + Negative + neither + negative.
Series [16] relates to Canidae. Particulars: chronic; duration: 1 years; oral; diet; Dog Other; Blood: Cholinesterase inhibition + Testis: Effects + Uterus: Effects.
Series [17] has as its system Rattus norvegicus. As to the kind of experiment: LD40; higher = less toxic. The settings on record: acute; oral; gavage; Sprague-Dawley.
[18] abbreviates: subchronic, duration: 13 weeks, oral, diet, B6C3F1.
[19] abbreviates: subchronic, duration: 13 weeks, oral, diet, Fischer 344.
The mark [20] stands for this setting: gavage, M, Sprague-Dawley, Clinical Observation: Salivation (transient) + Functional Observational Battery: Salivation Spontaneous motor activity (total ambulatory ….

≈ marks a conversion by molar mass, not a printed value. Where “and” joins values, the source holds several entries; their conditions need not be identical. Equal entries are not always repeated.

Take `NC(=Nc1ccccc1)Nc1ccccc1` [1,3-Diphenylguanidine]: the LD50 was 250 mg/kg in series [1]; 75 mg/kg and ≥ 25 mg/kg and ≤ 50 mg/kg in series [2] (acute, injection, Intraperitoneal); 250 mg/kg and 246 mg/kg in series [3] (oral). Further, the no observed adverse effect level (NOAEL) in [2] (developmental, duration: 19 days, oral, gavage, ICR) is at least 10 mg/kg-day; in series [2] (reproduction developmental, duration: 8 weeks, oral, gavage, CD1, generation: F0), at least 16 mg/kg-day; in [2] (reproduction developmental, duration: 19 days, oral, gavage, F, ICR), 4 mg/kg-day; in series [2] (setting [18]), 98.5 mg/kg-day; in series [4] (developmental, duration: 10 days, oral, gavage, Sprague-Dawley), 25 mg/kg-day; in [4] (reproduction developmental, duration: 13 weeks, oral, diet, Fischer 344, generation: F0) it was 750 ppm. Besides, the no-observed-adverse-effect level (NOAEL) is 5 mg/kg-day and 10 mg/kg-day in [4] (reproduction developmental, duration: 10 days, oral, gavage, F, Sprague-Dawley); 100 ppm in series [4] (short-term, duration: 28 days, oral, diet); 48 mg/kg-day in [4] (setting [19]); 14.4 mg/kg-day in [4] (subchronic, duration: 90 days, oral, diet, Sprague-Dawley). The LOAEL was 148 mg/kg-day in series [2] (setting [18]); 300 ppm in series [4] (short-term, duration: 14 days, oral, diet, Sprague-Dawley); 72 mg/kg-day in series [4] (setting [19]). Also, the NOEL in series [5] (diet, F, Fischer 344, Deaths + Clinical Observation: Ruffled fur Emacation Pale skin + Body Weight Changes: decrease + Food Consumption: decrease + Hematology: …) was under 17 mg/kg-day; in series [5] (diet, M/F, Fischer 344, Deaths + Clinical Observation: Ruffled fur Emacation Pale skin + Body Weight Changes: decrease + Food Consumption: decrease + Hematology: …), under 24 mg/kg-day. For the same molecule, the LD0 was 25 mg/kg in series [6], 200 mg/kg in [7], over 2000 mg/kg in [8] and 50 mg/kg in [9]. Further, the LD100 in [10] (injection, subcutaneous) was 50 mg/kg; in [10] (oral), 450 mg/kg.
Regarding `CCOCCOCCO` [2-(2-Ethoxyethoxy)ethanol], the NOAEL in series [5] (duration: 60 days, gavage, M, CD(BR), Deaths + Clinical Observation: Bloody urine LethargyProstration PiloerectionUnkempt hair coat Blood around the mouth and nose + Body Weight …) worked out at 1340 mg/kg-day; in series [5] (duration: 90 days, diet, M/F, CFE, Body Weight Changes: Terminal body weight decrease% + Food Consumption: decrease% + Urinalysis: Oxalate crystals increase% + Hematology: …), 0.5%; in series [11], 167 mg/kg-day.
For `CC(C)C#N` [2-Methylpropanenitrile], the LD50 in [3] (dermal, occlusive, New Zealand) was 239 mg/kg; in series [4] (oral), > 50 mg/kg and ≤ 100 mg/kg; in [4] (oral, gavage), 77 mg/kg. Further, the LC50 in [4] (inhalation, Sprague-Dawley) was over 2830 mg/m3; in series [4] (inhalation, albino), ≥ 1410 mg/m3 and ≤ 2830 mg/m3. In series [4] (reproduction developmental, duration: 6 days, inhalation, F, Sprague-Dawley), this molecule came in with an NOAEL of 283 mg/m3. The LC10 in series [12] came to 3320 mg/m3.
For the molecule `Cc1ccncc1` [4-Methylpyridine], the LD50 in series [3] (dermal, occlusive, New Zealand) is ≥ 126 mg/kg and ≤ 200 mg/kg. The LD50 in series [4] (oral, gavage, Sprague-Dawley) is 841 mg/kg and 700 mg/kg. Also, in [5] (setting [20]), the LOEL came out at 20 mg/kg-day and the NOEL stood at 5 mg/kg-day. Also, in [13], the LD40 is ≥ 200 mg/kg and ≤ 316 mg/kg.
In the case of `CNC(=O)Oc1cccc2c1OC(C)(C)C2` [Carbofuran], the LD50 in [3] (dermal, semiocclusive, New Zealand) was under 2000 mg/kg; in series [4] (oral, diet, Sprague-Dawley) it was 5.3 mg/kg and 13.2 mg/kg; in series [4] (oral, gavage, Sprague-Dawley), 7 mg/kg and 8.8 mg/kg and 13.3 mg/kg. Further, the NOAEL is at least 2 mg/kg-day in [3] (reproduction developmental, oral, gavage, F, New Zealand); 160 ppm in series [4] (developmental, duration: 14 days, oral, diet, Sprague-Dawley); 20 ppm in [4] (reproduction developmental, duration: 14 days, oral, diet, F, Sprague-Dawley); 20 ppm in [4] (reproduction developmental, oral, diet, Crl:CD(SD)). Moreover, in [4] (inhalation, particle, Sprague-Dawley), the LC50 worked out at 0.05 mg/L (≈ 0.226 µM). For the same molecule, in [14], the LEL amounted to 12.5 mg/kg-day. Besides, the NOEL in [14] is 0.5 mg/kg-day; in [15] it was 0.3 mg/kg-day; in [16] it was 0.5 mg/kg-day. Also, the LD40 in series [17] came out at 5.6 mg/kg.

One may read the NOAEL as the highest dose or exposure tested at which no adverse effect was seen. What is called LOAEL is the lowest tested level that showed an adverse finding.

(Values after EPA's ToxValDB 9.5.)
